Measurements: US10927139B2, “Chemically cleavable group” (Tagworks Pharmaceuticals B.V., priority 2012, dated 2021)
Where two headings read alike, the source gives them in different places.

Columns and labels:
[1] = Testing the feasibility of the deprotection of TCO compounds upon reaction with tetrazine; details: 20° C.
[2] = Testing the stability of a TCO compound under chemical conditions (HPLC-MS/PDA, GC-MS); format: physicochemical
Description: (§1) The feasibility to use the TCO group as a protective group in chemistry was studied by testing the stability of a range of TCO derivatives as model compounds under various conditions, and following the deprotection upon reaction with a tetrazine derivative under these conditions.
Typical Example for Testing the Stability of a TCO Compound
The TCO stock solution (10 μL 25 mM; 2.5*10^−7 mol) was added to a solution of the specific condition (100 μL). The mixture was stirred at the specific condition for a certain amount of time, and then the fate of the TCO compound was monitored by HPLC-MS/PDA analysis and/or GC-MS analysis, and an estimation of its stability was made.
(§2) A) in acetonitrile with 5 equivalents of pyridine per TCO at 20° C.
(§3) B) in acetonitrile with 5 equivalents of DIPEA per TCO at 20° C.
(§4) C) in acetonitrile with 5 equivalents of piperidine per TCO at 20° C.
(§5) D) in acetonitrile with 5 equivalents of n-butylamine per TCO at 20° C.
(§6) E) in acetonitrile with 5 equivalents of 2-mercaptoethanol per TCO at 20° C.
(§7) F) in tetrahydrofuran with 5 equivalents of triphenylphosphine per TCO at 20° C.
(§8) G) in acetonitrile with 5 equivalents of DCC per TCO at 20° C.
(§9) H) in acetonitrile with 5 equivalents of PyBOP per TCO at 20° C.
(§10) I) in acetonitrile with 1 v % of formic acid at 20° C.
(§11) J) in chloroform at 20° C.
(§12) K) in chloroform with 1 v % of formic acid at 20° C.
(§13) L) in chloroform with 1 v % of trifluoroacetic acid at 20° C.
(§14) M) in chloroform with 10 v % of trifluoroacetic acid at 20° C.
(§15) N) in chloroform with 33 v % of trifluoroacetic acid at 20° C.
(§16) Z) in 25% acetonitrile in water at 20° C.

[3] = Testing the feasibility of the deprotection of TCO compounds upon reaction with tetrazine
Description: as §1
Typical Example for Testing the Feasibility of the Deprotection
The TCO stock solution (10 μL 25 mM in acetonitrile; 2.5*10^−7 mol) was added to a solution of the specific condition (100 μL). A solution of 3,6-dimethyl-1,2,4,5-tetrazine (8, 20 μL 25 mM in acetonitrile; 5.0*10^−7 mol) was added, and the mixture was stirred at the specific condition for a certain amount of time. The reaction was monitored by HPLC-MS/PDA analysis and/or GC-MS analysis, and the percentage of deprotection was estimated.
as §2, §3, §4, §5, §6, §7, §8, §9, §10, §11, §12, §13, §14, §15, §16

[4] = Deprotection of N-TCO protective group (Example 6, 1H-NMR); details: chloroform with trifluoroacetic acid; 3,6-dimethyl-1,2,4,5-tetrazine (8); 20° C. for 40 min
Description: (N-TCO-6-aminohexyl) phenylcarbamate (5.61 mg; 1.44*10^−5 mol) was dissolved in chloroform (0.6 mL) and trifluoroacetic acid (20 mg; 1.75*10^−4 mol) was added. Subsequently, a solution of 3,6-dimethyl-1,2,4,5-tetrazine (8, 1.90 mg; 1.73*10^−5 mol) in chloroform (0.1 mL) was added. The pink, homogeneous mixture was stirred at 20° C. for 40 min. According to ^1H-NMR, more than 95% was deprotected. The reaction mixture was washed with aqueous potassium carbonate (0.5 mL 0.4 M), dried over sodium sulfate, filtered, and evaporated to dryness. The crude product was purified by preparative RP-HPLC and isolated by lyophilization to yield a white powder (2.31 mg; 68%). ^1H-NMR (DMSO-d6): δ=9.60 (s, 1H), 7.46 (d, 2H), 7.26 (t, 2H), 6.97 (t, 1H), 4.06 (t, 2H), 2.60 (t, 2H), 1.62 (m, 2H), 1.33 (m, 6H) ppm. ^13C-NMR (CDCl3): δ=153.6, 139.2, 128.7, 122.2, 118.1, 73.8, 64.1, 41.5, 33.3, 28.6, 26.1, 25.4 ppm. FT-IR (ATR): v=3343, 2939, 1707, 1542, 1448, 693 cm^−1. LC-MS: m/z=+237.17 [M+H]+(calcd 236.15 for C13H20N2O2).

[5] = Binding of TCO-protected doxorubicin to beads coated with BSA-tetrazine and doxorubicin release (HPLC)
Description: Tetrazine functionalization of a BSA-coated particle has been described in J. Nucl. Med. 2013, 54, 1989-1995. Briefly, a solution of BSA (bovine serum albumin; 0.7 mg) in PBS was mixed with a 10 mg/mL solution of a bis-pyridyl-tetrazine-NHS derivative in DMF (35 μL, 30 eq. with respect to BSA) and the pH was adjusted to 9.0 with 1 M sodium carbonate buffer. The solution (125 μL total) was incubated at room temperature for 30 min then the unreacted tetrazine was removed from the solution by using a Zeba desalting spin column (7 kDa MW cut-off) pre-washed with PBS. UV measurements confirmed the presence of 12 tetrazine moieties per BSA molecule.
The eluate containing BSA-tetrazine in PBS was added to a 350 μL suspension of polystyrene beads (Polybeads, 0.5 μm, Polysciences) in H2O and the resulting suspension was incubated at +4° C. for 1 h on an end-over-end rotating mixer (10 rpm). After incubation, the suspension of beads coated with BSA-tetrazine was centrifuged at 12,000 rpm for 4 min. The supernatant was carefully removed and the pellet was resuspended in 1.5 mL PBS by using a tip sonicator at low power (Sonics VibraCell, 4×5 sec pulses, 40% of power). The centrifuging-resuspension cycle was repeated 2 times, after which the bead pellet was resuspended in 200 μL PBS and reacted with 7 nmol of TCO-protected doxorubicin (TCO-3-Doxorubin, 1 mM in DMSO).
After 5 min incubation at 37° C. in a thermomixer (350 rpm), the beads were removed by centrifugation and the supernatant was analyzed by HPLC on an Agilent Techologies system (1100 series) equipped with a fluorescence detector with λhex=485 nm and λem=590 nm. The sample was loaded on an Eclipse XDB-C18 column (5 μm, 4.6×150 mm^2, Agilent) which was eluted isocratically with 30% (v/v) acetonitrile in H2O containing 0.1% TFA (v/v) at 1 mL/min. HPLC analysis of the supernatant confirmed that ca. 75% of TCO-doxorubicin was bound to the beads.
The bead pellet was resuspended in 1.5 mL PBS and centrifuged twice to eliminate unbound TCO-doxorubicin. Subsequently, the beads were resuspended in 400 μL PBS and incubated at 37° C. At various times, aliquots of the supernatant were analyzed by HPLC. The chromatographic profiles (FIG. 2) show release of free doxorubicin (Rt=6.2 min) from the beads with time (>45% after 3 h; complete within 24 h).

[6] = TCO-doxorubicin with uncoated and unmodified beads (comparison); details: same conditions
streptavidin beads = biological target: T1, streptavidin beads (Streptomyces avidinii, UniProt P22629); assay: Capture of 125I-Rtx-TCO-biotin with streptavidin beads (gamma counting); format: binding; details: 1 hour incubation
T1 construct: purchased Invitrogen
Description: Rituximab (Rtx, 100 μg in 200 μL PBS, Roche) was radiolabeled with ^125I (Perkin Elmer) in a Pierce iodination tube (5 min incubation at room temperature) followed by size exclusion (SEC) purification (2 times, 0.5 mL Zeba desalting spin cartridge, 40 kDa MWCO, Pierce). Subsequently, non-radioactive Rtx was added to the solution (making 1 mg total Rtx), the pH was adjusted to 9 with 1 M sodium carbonate buffer and TCO-2-Biotin (3 eq., 5 mg/mL in DMSO) was added. The reaction mixture (200 μL) was incubated for 2 hours at 37° C. (350 rpm), purified once by SEC cartridge and then analyzed by SEC HPLC on an Agilent 1200 system equipped with a Gaby radioactive detector and UV detector and connected to a BioSep-SEC-S-3000 column (300×7.8 mm, 5 μm particles, Phenomenex) which was eluted at 1 mL/min with 0.1 M phosphate 0.15 M NaCl pH 6.8.
Subsequently, various amounts of ^125I-Rtx-TCO-biotin were combined with 1 mg streptavidin beads (Dynabeads MyOne Streptavidin Cl, Invitrogen) in 200 μL PBS and incubated for 1 hour at room temperature on a roller bench, to avoid bead settling. After incubation, the supernatants were removed and the beads were washed extensively with PBS.

[7] = 0.1 M HCOOH buffer, pH = 2.0 for 2 day, 20° C.
[8] = 0.1 M NH3 buffer, pH = 11 for 5 day, 20° C.
[9] = 0.1 M NH4OAc buffer, pH = 7.0 for 5 day, 20° C.
[10] = 0.1 M NH4OAc buffer, pH = 8.0 for 8 day, 20° C.
[11] = 0.1 M NH4OAc buffer, pH = 10.0 for 8 day, 20° C.
[12] = 10% MeCN in H2O at 70° C. for 5 day
[13] = with 5 eq. of DIPEA in MeCN for 16 h, 20° C.
[14] = with 5 eq. of PyBOP in MeCN for 16 h, 20° C.

T1 sequence (P22629 25-183): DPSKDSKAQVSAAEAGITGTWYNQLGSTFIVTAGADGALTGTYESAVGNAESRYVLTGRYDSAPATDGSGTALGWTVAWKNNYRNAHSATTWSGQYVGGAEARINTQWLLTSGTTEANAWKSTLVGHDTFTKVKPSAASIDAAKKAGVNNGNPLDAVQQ

## COc1cc(COC(=O)NC2CC/C=C/CCC2N)cc(OC)c1OC (stereo not drawn)
[1]; 0.1 M NH4OAc buffer, pH = 9.0 for 8 day
  Deprotection (%): 25%
[1]; 10% MeCN in H2O for 5 day
  Deprotection (%): 0%
[2]; [7]
  Stability of TCO: stable
[2]; [8]
  Stability of TCO: cyclization: < 5%
[2]; [9]
  Stability of TCO: stable
[2]; [10]
  Stability of TCO: stable
[2]; 0.1 M NH4OAc buffer, pH = 9.0 for 8 day, 20° C.
  Stability of TCO: stable
[2]; [11]
  Stability of TCO: stable
[2]; [12]
  Stability of TCO: cyclization: <5%
[2]; 10% MeCN in H2O for 5 day, 20° C.
  Stability of TCO: stable
[3]; [7]
  Deprotection (%): 0%
[3]; [8]
  Deprotection (%): 87%
[3]; [9]
  Deprotection (%): 0%
[3]; [10]
  Deprotection (%): 0%
[3]; [11]
  Deprotection (%): 81%
[3]; [12]
  Deprotection (%): 50%

## NC1CC/C=C/CCC1NC(=O)Oc1ccccc1 (stereo not drawn)
[1]; with 5 eq. of HCOOH in MeCN for 16 h
  Deprotection (%): 33.9%
[1]; with 5 eq. of pyridine in MeCN for 16 h
  Deprotection (%): 71.7%
[2]; 0.1 M NH4OAc buffer, pH = 7.0, 20° C., read-out: Stability of TCO, t1/2
  half-life: 80 h
[2]; 0.1 M NH4OAc buffer, pH = 8.0, 20° C., read-out: Stability of TCO, t1/2
  half-life: 17 h
[2]; 0.1 M NH4OAc buffer, pH = 9.0, 20° C., read-out: Stability of TCO, t1/2
  half-life at 2.3 mM: 5.3 h
[2]; [13]
  Stability of TCO: cyclization: 6.7%
[2]; with 5 eq. of HCOOH in MeCN for 16 h, 20° C.
  Stability of TCO: cyclization: 1.9%
[2]; [14]
  Stability of TCO: cyclization: 5.9%
[2]; with 5 eq. of pyridine in MeCN for 16 h, 20° C.
  Stability of TCO: cyclization: 2.6%
[3]; [13]
  Deprotection (%): 98.8%
[3]; [14]
  Deprotection (%): 24.4%

## O=C(Nc1ccccc1)OCCCCCCNC(=O)OC1/C=C/CCCCC1 (stereo not drawn) [(N-TCO-6-aminohexyl) phenylcarbamate]
[4]
  deprotected according to 1H-NMR: more than 95%

## COc1cccc2c1C(=O)c1c(O)c3c(c(O)c1C2=O)C[C@@](O)(C(=O)CO)C[C@@H]3O[C@H]1CC(NC(=O)OCc2ccc(OC(=O)N[C@@H]3CC/C=C/CC[C@@H]3N)cc2)[C@H](O)C(C)O1 (stereo partly drawn) [TCO-3-Doxorubicin]
[5]; BSA-tetrazine coated beads, 5 min incubation at 37° C., HPLC of supernatant
  TCO-doxorubicin bound to the beads: ca. 75%
[5]; PBS, 37° C.
  time to complete release of free doxorubicin from the beads: ≤ 24 h
[5]; PBS, 37° C., after 3 h
  release of free doxorubicin from the beads: > 45%
[6]
  non-specific proDox adsorption on the bead surface: > 95%

## ^125I-Rtx: Rituximab (Rtx, Roche) radiolabeled with 125I
Streptavidin beads
  radioactivity bound to streptavidin beads: almost no radioactivity was bound
